Patent US9771563B2, “Chemical approaches for generation of induced pluripotent stem cells” (The Scripps Research Institute, priority 2008, dated 2017)

Assays:
[1] = system: mouse embryonic fibroblasts (129 or OG2 MEFs); assay: Screen for iPSC generation from MEFs transduced with Oct4/Klf4 (OK); type: cell-based; conditions: for hit in second synergist screen: OK-transduced MEFs, 1 μM BIX in medium, compound 0.5-2 μM, not followed up
Method: Unmodified MEFs derived from E13-14 embryos of the 129 mice were used for the initial screen. MEFs were plated on Matrigel at 3.5×10^4 cells/well of a 6-well plate and transduced with OK (retroviral vectors expressing Oct4 and Klf4) alone. Within 14-21 days, treated cells were assessed for the appearance of colonies that had the characteristic embryonic stem cell (ESC) colony morphology and were positive for the pluripotency marker alkaline phosphatase (ALP). Such OK-transduced cells generated only a few small non-compact colonies, which were weakly positive for ALP expression. These colonies initially appeared within 21 days after viral transduction and were difficult to expand. Therefore, such assay system offered a clean background for the identification of small molecules having desirable reprogramming inducing activity. Using this system, compounds from a library of around 2000 known small molecules (see Experimental Procedures below) were screened and were identified as hits when they induced the appearance of ESC colonies that were strongly positive for ALP within 14-21 days after treatment. This image-based method provided a more accurate assessment of reprogramming as compared to homogenous reporter-based assay. BIX appeared to have the strongest effect with reproducible induction of more than 1-2 compact ESC-like colonies with high ALP expression. We observed that when MEFs were treated with BIX after OK viral transduction, compact colonies with strong ALP expression could be readily detected within approximately 14-21 days. These cells were also positive for Nanog, Oct4 and SSEA-1 expression. […] However, the reprogramming efficiency in MEFs transduced with OK and treated with BIX was still low, about 2 colonies/3.5×10^4 cells, in comparison to the four factor-induced reprogramming of MEFs or the OK/BIX NPC reprogramming (Shi, Y. et al., Cell Stem Cell, 2:525-528 (2008)). Therefore, we conducted a second screen using a similar protocol, but where BIX was added to the basal media after OK viral transduction. This provided a more permissive platform to identify new small molecules that could further improve reprogramming efficiency. More importantly, this second screen could facilitate discovery of small molecules that impact reprogramming in a more specific manner, for example by acting on signal transduction pathways rather than on histone or DNA modifying enzymes. In this second screen, we again assayed the library of around 2000 known small molecules (see Experimental Procedures), and confirmed two compounds that were able to act in a synergistic manner with BIX to improve reprogramming based on the criteria of the screen. […] Therefore, RG108 was not pursued further for this study. Instead, we focused our phenotypic and functional characterization on another small molecule that was identified in the second screen, BayK, an L-calcium channel agonist. […] Therefore, BayK might play a more specific role in the reprogramming process. When 129 MEFs were transduced with empty retrovirus (negative control); no colonies observed. When 129 MEFs were transduced with OK without small molecules; few small flattened colonies with weak ALP expression present. […] When OK-transduced MEFs were treated with BIX in combination with BayK, a significant increase in the number of ALP^+ colonies that closely resemble the mESC morphology could be observed (˜7 colonies) as compared to OK-transduced MEFs treated with BIX alone (˜2 colonies).
Primary 12952/SvPasCrlf (primary screen) or ROSA26^+/−/OG2^+/− (secondary screen) MEFs were plated onto Matrigel (1:50; BD Biosciences, Bedford, Mass.) coated dishes at a density of 3.5×10^4 cells per well of a 6-well plate. Twenty-four hours later, these cells were transduced overnight with defined retroviruses at 37° C., 5% CO2. […] (all products were from Invitrogen, Carlsbad, Calif., except where mentioned). […]

[2] = system: primary OG2 neural progenitor cells; assay: iPS cell induction from neural progenitor cells after retroviral transduction; type: cell-based, mouse; conditions: applied at late stage of reprogramming (after Oct4-GFP activation)
Method: The reporter neural progenitor cells were generated using a well established protocol by differentiating the Oct4-GiP mESCs grown in monolayer on gelatin in a chemically defined medium/CDM condition in the absence of serum and other growth factors/cytokines at low cell density for eight days, followed by neurophere formation and subsequent serial passaging in single cells in neural cell expansion media supplemented with 10 ng/ml of bFGF and EGF in monolayer for over six passages/24 days. The resulting neural progenitor cells were homogenous by cell morphology and neural marker expression, and were confirmed to be GFP negative and puromycin sensitive. Such neural progenitor cells plated in monolayer in conventional mESC growth media were transduced with combinations of four, three, or two of the four factors, followed by treating the transduced cells with individual small molecules from a small known drug collection in a typical 6-well format. The compound treatment and culture were continued for additional ten days before puromycin was added. The number of green and puro-resistant colonies was counted at day 14. In comparison to the only four-gene transduced neural cells as the positive control, compound conditions that generated more green colonies than the corresponding gene-only conditions were picked as primary hits. To further confirm these primary hit conditions, we chose to use a late passage of mouse CNS neural progenitor cells (Do, J. T. et al., Stem Cells 25, 1013-1020 (2007)) that were derived from fetal brain of OG2^+/−/ROSA26^+/− transgenic mice (which contain an Oct4-GFP reporter) and expanded in monolayer under the same neural CDM condition as the above with 10 ng/ml of bFGF and EGF. Such cells truly from a non-pluripotent tissue would be devoid of concerns of any contaminating ES cell in the above screening system, which is highly unlikely with all appropriate controls. Similar culture conditions and reprogramming assays were performed using the OG2 neural progenitor cells except that puromycin was not used and green colonies were picked out and characterized by staining of Nanog, SSEA1 and ALP.
mESC-derived or primary OG2 mouse neural progenitor cells were plated into Matrigel (1:50, BD Biosciences) coated 6-well plates at 3.5×10^4 cells/well in the neural progenitor cell expansion media. After one day these cells were transduced with retrovirus for overnight, and the medium was changed into the mESC growth media [DMEM, 5% FBS, 10% KSR, 1× non-essential amino acids (Gibco), 2 mM L-glutamine (Gibco), 0.1 mM β-mercaptoethanol (Gibco) and 10^3 unit/ml LIF (Chemicon)] with or without BIX01294 (0.5-1 μM). GFP-positive iPS cell colonies appeared after 9-14 days, and were picked out and expanded on MEF feeder cells with the mESC growth media.

mouse fibroblasts = assay: Reprogramming of mouse fibroblasts with exogenous poly-Arg transcription factor proteins; type: cell-based; conditions: cells incubated with transcription factor proteins plus agent
Method: Mouse fibroblasts were grown in mESC medium supplemented with 8 μg/ml of either Oct4/Sox2/Klf4 or Oct4/Sox2/Klf4/Myc (all proteins comprising poly-Arg as described above) for 6-8 hours, washed, and incubated for 2-3 days in mESC media without the above-listed transcription factors. This (4-12 hours with, 1-3 days without) was repeated a number (1, 2, 3, 4, or more) of times and then the cells were cultured in mESC for two weeks.
Mouse fibroblasts were grown in mESC growth medium [Knockout DMEM (Invitrogen) supplemented with 10% ES-FBS+10% KSR, 0.1 mM 2-ME, 1% Glutamax, 1% Non-essential amino acids, 1% EmbryoMax ESC Qualified Nucleosides (Millipore), and 10^3 units/ml LIF (ESGRO, Chemicon International)] supplemented with 8 μg/ml of Oct4/Sox2/Klf4/Myc (all four transcription factors are tagged with poly-Arg […]; SEQ ID NO:2) for 4-12 hours, followed by culturing the cells in the absence of the Oct4/Sox2/Klf4/Myc polypeptides for one day. This procedure was repeated 4 times. The cells were then cultured in mESC medium for another two weeks. iPSC clones were detected by colony morphology and expression of pluripotency markers. An intermediate iPSC clone, which expresses ALP but not Oct4 (Oct4), was dissociated with Trypsin-EDTA. The clone was then expanded by continuous culturing with regular mESC medium or medium supplemented with 0.5 μM PD0325901, 3 μM CHIR99021, 0.5 μM A-83-01. The number of Oct4-positive colonies were counted 2 weeks after small molecule treatment (FIG. 14).

[3] = system: human primary fibroblasts (CRL2097 or BJ); assay: Reprogramming of human primary fibroblasts transduced with 4TFs; type: cell-based
Method: We tested known inhibitors of the TGFβ receptor and MEK on 1×10^4 [Feng, B. et al., Cell Stem Cell 4, 301-12 (2009)] human primary fibroblasts (CRL2097 or BJ) that were retrovirally transduced with the 4TFs (Oct4, Klf4, Sox2 and c-Myc), for their effects on reprogramming kinetics and efficiency. On day 7 (D7) post-infection, the compounds were added, individually or in combinations, and the cultures were examined for iPSCs over the next 1-3 weeks.
The Slc7a1-expressing human fibroblast cells were seeded at 1×10^5 cells/well of a 6 well plate on the day 1. On day 2, 0.25 ml of each retroviral supernatant was added to the cells in the presence of 6 μg/ml polybrene. A second round of transduction was done on day 3. Infection efficiency was estimated by fluorescence microscopy on cells transduced in parallel with GFP or RFP gene-carrying retroviruses. Seven days after initial transduction, fibroblasts were harvested by trypsinization and re-plated at 1×10^4 cells/well of a 6 well plate coated with matrigel (1:50 dilution, cat 354234, BD Biosciences). For compound treatment, the cells were cultured in human reprogramming medium (DMEM/F12, 20% Knockout serum replacer, lx MEM Non-Essential amino acid, lx glutamax, 0.11 mM 2-Mercaptoethanol, 20 ng/ml bFGF and 1,000 U/ml LIF) and were treated with 2 μM SB431542 (Stemgent), 0.5 μM PD0325901 (Stemgent), or combinations of the compounds. The media were changed every 2-3 days depending on the cell density. Seven days after compound treatment, either the plates were fixed and stained for Alkaline phosphatase (ALP) activity, or stained for protein markers, or the cultures were continued with or without indicated splitting by trypsinization till day 30. For split cultures, the cells were split (1:4) and re-plated onto irradiated CF-1 MEF feeder layer (2.5×10^5 cells/well) in each well of 6 well plate and were split (1:10) again on day 21. The cells were maintained in the same media and compound cocktail described above except for the concentrations of PD0325901 (0.5 μM for D14 and 1 μM for D21) and SB431542 (0.5-1 μM after D14). The iPSC colonies were subsequently maintained in conventional hESC media in the absence of the above compounds.
Alkaline phosphatase staining was performed using ALP detection kit (cat no: SCR004, Chemicon) according to the product instructions. For immunocytochemistry, cells were fixed in 4% paraformaldehyde (10 min, RT), washed twice with PBS, blocked using 5% normal donkey serum (Chemicon) and 0.1% TritonX-100 (15 min, RT) and then treated with primary antibodies overnight at 4° C. The primary antibodies used were anti-NANOG (cat no: AB9220, Chemicon, 1:1,000); anti-OCT4 (cat no: sc-5279, Santa Cruz biotech, 1:200), anti-SSEA 4 (cat no: mab4304, Chemicon, 1:500), anti-Tra-1-81 (cat 560123, BD Biosciences, 1:100), anti-Tra-1-81 (mAb 4381, Chemicon, 1:500), anti-βIII TUBULIN (cat no: MMS-435P, Covance Research Products Inc, 1:1000), anti-PDX 1 (1:500) (a kind gift from Dr. C. Wright), anti-BRACHYURY (cat No: AF2085, R & D, final concentration 0.2 μg/ml). The cells were washed twice with PBS and then treated with secondary antibodies for 1 hour at room temperature. The secondary antibodies used were Alexa fluor 488 donkey anti-rabbit or anti-mouse IgG (Invitrogen, 1:1,000) and Alexa fluor 555 donkey anti-rabbit or anti-mouse IgG (Invitrogen, 1:1,000). Nuclei were stained with 0.5 μg/ml DAPI (Sigma). Images were captured using a Nikon Eclipse TE2000-U/X-cite 120 EXFO microscope with a photometric CoolSnap HQ2 camera.
We tested the TGFβ receptor inhibitor (SB431542), MEK inhibitor (PD0325901) and GSK-3 inhibitor (CHIR99021), on human fibroblast crl2097 that were retrovirally transduced with Oct4, Klf4, Sox2 and c-Myc, for their effects on reprogramming kinetics and efficiency. Conditions are the same as set forth in Example 5. Data were collected 8 days after compound treatment.

## CCN(CC)CCCCNc1ncc2cc(-c3cc(OC)cc(OC)c3)c(NC(=O)NC(C)(C)C)nc2n1 [PD173074]
[1]
  hit in second synergist screen: primary hits

## Cc1cc(Nc2ncc3c(n2)N(C)C(=O)N(c2cc(NC(=O)c4cccc(C(F)(F)F)c4)ccc2C)C3)n(C)n1 [pluripotin]
[1]
  hit in second synergist screen: primary hits

## O=C(O)C(Cc1c[nH]c2ccccc12)N1C(=O)c2ccccc2C1=O (stereo not drawn) [RG108]
[1]; in the presence of BIX
  reprogramming of OK transduced MEFs (second screen): enhanced reprogramming of OK transduced MEFs in the presence of BIX

## O=C(NOC[C@H](O)CO)c1ccc(F)c(F)c1Nc1ccc(I)cc1F [PD0325901]
[2]
  growth of non-iPS cells and iPS cells (selection): inhibits growth of non-iPS cells while it effectively promotes growth and stable reprogramming of iPS cells
Mouse fibroblasts
  efficiency and speed of development of pluripotent cells: improved efficiency and speed of development of pluripotent cells
[3]; 4TFs transduced fibroblasts, 7 days after compound treatment, SB431542 at 2 μM
  ALP+ colonies with hESC-like morphology (FIG. 7A): yielded none
[3]; day 7 post-treatment (D14)
  colonies stained positive for SSEA4 and NANOG: no NANOG^+ colonies were observed

## TGFβ
[3]; addition of TGFβ
  effect on 4 factor-mediated reprogramming of fibroblasts: had an inhibitory effect on 4 factor-mediated reprogramming of fibroblasts

## c1nc2nc(Nc3ccc(N4CCOCC4)cc3)nc(NC3CCCCC3)c2[nH]1 [reversine]
[1]
  hit in second synergist screen: primary hits
